We go through 33 compounds from patent publication US20230312556A1, “ARYLAMIDE COMPOUND, PHARMACEUTICAL COMPOSITION COMPRISING SAME, AND PREPARATION METHOD THEREFOR AND USE THEREOF” (SICHUAN KELUN-BIOTECH BIOPHARMACEUTICAL CO., LTD., priority 2020, published 2023).

SMILES strings stand for the structures.

For this test, the target named is mutant BRAF enzyme (BRAF-V600E) (Homo sapiens (Human), UniProt P15056, V600E). Description: RAF inhibition assay (TB-PMAP2K1 kit), BRAF-V600E. The class given is biochemical. The settings on record: FLUORESCEIN-MAP2K1 substrate, 60 min reaction.
Sequence of mutant BRAF enzyme (BRAF-V600E) (P15056 whole entry V600E): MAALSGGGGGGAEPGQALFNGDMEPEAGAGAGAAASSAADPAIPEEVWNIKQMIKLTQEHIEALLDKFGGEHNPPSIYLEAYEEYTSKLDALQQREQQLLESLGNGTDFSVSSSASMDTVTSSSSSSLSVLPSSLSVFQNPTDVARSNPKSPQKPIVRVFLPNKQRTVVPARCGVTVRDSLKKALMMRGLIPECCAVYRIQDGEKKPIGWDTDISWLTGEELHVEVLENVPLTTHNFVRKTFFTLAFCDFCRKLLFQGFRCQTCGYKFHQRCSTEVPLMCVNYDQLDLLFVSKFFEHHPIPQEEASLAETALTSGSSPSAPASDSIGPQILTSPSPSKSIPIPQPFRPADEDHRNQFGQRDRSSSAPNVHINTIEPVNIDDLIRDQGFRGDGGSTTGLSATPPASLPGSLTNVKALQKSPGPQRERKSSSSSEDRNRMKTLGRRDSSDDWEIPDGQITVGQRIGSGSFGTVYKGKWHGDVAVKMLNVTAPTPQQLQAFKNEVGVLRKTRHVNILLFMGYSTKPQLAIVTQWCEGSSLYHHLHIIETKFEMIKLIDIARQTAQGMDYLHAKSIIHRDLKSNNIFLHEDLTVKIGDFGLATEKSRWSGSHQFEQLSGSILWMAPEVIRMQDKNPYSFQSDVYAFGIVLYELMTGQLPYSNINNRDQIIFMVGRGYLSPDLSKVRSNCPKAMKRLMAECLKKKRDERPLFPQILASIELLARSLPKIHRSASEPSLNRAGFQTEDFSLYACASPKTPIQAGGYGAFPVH
Take `Cc1ccc2c(Nc3cccc(Cl)c3F)nccc2c1NC(=O)c1cccc2c(N)nccc12` [Comparative Example 1, 1-amino-N-(1-((3-chloro-2-fluorophenyl)amino)-6-methylisoquinolin-5-yl)isoquinoline-5-carboxamide, reference compound]: the IC50 is above 1000 nM.
Then `Cc1ccc2c(Nc3cccc(C(F)(F)F)c3)nccc2c1NC(=O)c1cccc2c(N)nccc12` [Comparative Example 2, 1-amino-N-(6-methyl-1-((3-(trifluoromethyl)phenyl)amino)isoquinolin-5-yl)isoquinoline-5-carboxamide, reference compound], with above 1000 nM; and `Cc1ccc2c(Cc3ccccc3F)nccc2c1NC(=O)c1csc2c(N)ncnc12` [Compound 2, 4-amino-N-(1-(2-fluorobenzyl)-6-methylisoquinolin-5-yl)thieno[3,2-d]pyrimidine-7-carboxamide], with 35.6 ± 2.4 nM; and `COc1ccc(Cc2nccc3c(NC(=O)c4csc5c(N)ncnc45)c(C)ccc23)cc1` [Compound 5, 4-amino-N-(1-(4-methoxybenzyl)-6-methylisoquinolin-5-yl)thieno[3,2-d]pyrimidine-7-carboxamide], with 8.9 ± 1.03 nM.
In the case of `COc1ccc(C(O)c2nccc3c(NC(=O)c4csc5c(N)ncnc45)c(C)ccc23)cc1` (stereo not drawn) [Compound 6, 4-amino-N-(1-(hydroxy(4-methoxyphenyl)methyl)-6-methylisoquinolin-5-yl)thieno[3,2-d]pyrimidine-7-carboxamide] it was 25.2 ± 4.08 nM; in that of `Cc1ccc2c(Cc3cccc(Cl)c3F)nccc2c1NC(=O)c1csc2c(N)ncnc12` [Compound 8, 4-amino-N-(1-(3-chloro-2-fluorobenzyl)-6-methylisoquinolin-5-yl)thieno[3,2-d]pyrimidine-7-carboxamide], 8.63 ± 0.99 nM; in that of `Cc1ccc2c(Cc3ccccc3Cl)nccc2c1NC(=O)c1csc2c(N)ncnc12` [Compound 10, 4-amino-N-(1-(2-chlorobenzyl)-6-methylisoquinolin-5-yl)thieno[3,2-d]pyrimidine-7-carboxamide], 4.73 ± 1.82 nM.
In the case of `Cc1ccc2c(C(=O)c3ccccc3Cl)nccc2c1NC(=O)c1csc2c(N)ncnc12` [Compound 11, 4-amino-N-(1-(2-chlorobenzoyl)-6-methylisoquinolin-5-yl)thieno[3,2-d]pyrimidine-7-carboxamide] it was 33.1 ± 7.2 nM; in that of `Cc1ccc2c(Nc3cccc(Cl)c3)nccc2c1NC(=O)c1cnc2c(N)ncnn12` [Compound 12, 4-amino-N-(1-((3-chlorophenyl)amino)-6-methylisoquinolin-5-yl)imidazo[2,1-f][1,2,4]triazine-7-carboxamide], 1.5 ± 0.2 nM; in that of `Cc1ccc2c(Cc3ccc(F)cc3)nccc2c1NC(=O)c1csc2c(N)ncnc12` [Compound 13, 4-amino-N-(1-(4-fluorobenzyl)-6-methylisoquinolin-5-yl)thieno[3,2-d]pyrimidine-7-carboxamide], 32.8 ± 0.6 nM.
Compound `Cc1ccc2c(C(O)c3ccccc3Cl)nccc2c1NC(=O)c1csc2c(N)ncnc12` (stereo not drawn) [Compound 14, 4-amino-N-(1-((2-chlorophenyl)(hydroxy)methyl)-6-methylisoquinolin-5-yl)thieno[3,2-d]pyrimidine-7-carboxamide] returned an IC50 of 6.3 ± 0.7 nM.
Then `Cc1ccc2c(C(O)c3ccc(F)cc3)nccc2c1NC(=O)c1csc2c(N)ncnc12` (stereo not drawn) [Compound 15, 4-amino-N-(1-((4-fluorophenyl)(hydroxy)methyl)-6-methylisoquinolin-5-yl)thieno[3,2-d]pyrimidine-7-carboxamide], with 11.1 ± 1.5 nM; and `Cc1ccc2c(Cc3cccc(Cl)c3)nccc2c1NC(=O)c1csc2c(N)ncnc12` [Compound 16, 4-amino-N-(1-(3-chlorobenzyl)-6-methylisoquinolin-5-yl)thieno[3,2-d]pyrimidine-7-carboxamide], with 6.27 ± 1.15 nM.
In the case of `Cc1ccc2c(C(O)c3cccc(Cl)c3)nccc2c1NC(=O)c1csc2c(N)ncnc12` (stereo not drawn) [Compound 17, 4-amino-N-(1-((3-chlorophenyl)(hydroxy)methyl)-6-methylisoquinolin-5-yl)thieno[3,2-d]pyrimidine-7-carboxamide] it was 5.73 ± 1.05 nM; in that of `Cc1ccc2c(Cc3ccc(Cl)cc3)nccc2c1NC(=O)c1csc2c(N)ncnc12` [Compound 18, 4-amino-N-(1-(4-chlorobenzyl)-6-methylisoquinolin-5-yl)thieno[3,2-d]pyrimidine-7-carboxamide], 8.33 ± 1.25 nM; in that of `Cc1ccc2c(C(O)c3ccc(Cl)cc3)nccc2c1NC(=O)c1csc2c(N)ncnc12` (stereo not drawn) [Compound 20, 4-amino-N-(1-((4-chlorophenyl)(hydroxy)methyl)-6-methylisoquinolin-5-yl)thieno[3,2-d]pyrimidine-7-carboxamide], 10.7 ± 1.93 nM.
In the case of `Cc1ccc2c(C(=O)c3ccc(Cl)cc3)nccc2c1NC(=O)c1csc2c(N)ncnc12` [Compound 21, 4-amino-N-(1-(4-chlorobenzoyl)-6-methylisoquinolin-5-yl)thieno[3,2-d]pyrimidine-7-carboxamide] it was 5.99 ± 1.82 nM.
The compound `Cc1ccc2c(C(O)c3ccccc3Cl)nccc2c1NC(=O)c1cccc2c(N)ncnc12` (stereo not drawn) [Compound 24, 4-amino-N-(1-((2-chlorophenyl)(hydroxy)methyl)-6-methylisoquinolin-5-yl)quinazoline-8-carboxamide] yielded an IC50 of 7.1 ± 0.7 nM.
In the case of `Cc1ccc2c(Cc3ccccc3Cl)nccc2c1NC(=O)c1cccc2c(N)ncnc12` [Compound 25, 4-amino-N-(1-(2-chlorobenzyl)-6-methylisoquinolin-5-yl)quinazoline-8-carboxamide] it was 6.31 ± 0.99 nM.
In the case of `Cc1ccc2c(Cc3ccc(Cl)cc3F)nccc2c1NC(=O)c1csc2c(N)ncnc12` [Compound 26, 4-amino-N-(1-(4-chloro-2-fluorobenzyl)-6-methylisoquinolin-5-yl)thieno[3,2-d]pyrimidine-7-carboxamide] it was 9 ± 0.77 nM; in that of `Cc1ccc2c(C(=O)c3ccc(Cl)cc3F)nccc2c1NC(=O)c1csc2c(N)ncnc12` [Compound 27, 4-amino-N-(1-(4-chloro-2-fluorobenzoyl)-6-methylisoquinolin-5-yl)thieno[3,2-d]pyrimidine-7-carboxamide], 6.48 ± 0.93 nM; in that of `Cc1ccc2c(Nc3cccc(Cl)c3F)nccc2c1NC(=O)c1cnc2c(N)ncnn12` [Compound 30, 4-amino-N-(1-((3-chloro-2-fluorophenyl)amino)-6-methylisoquinolin-5-yl)imidazo[2,1-f][1,2,4]triazine-7-carboxamide], 4.1 ± 0.2 nM.
Then `Cc1ccc2c(C(O)c3ccc(C(F)(F)F)cc3)nccc2c1NC(=O)c1csc2c(N)ncnc12` (stereo not drawn) [Compound 33, 4-amino-N-(1-(hydroxy(4-(trifluoromethyl)phenyl)methyl)-6-methylisoquinolin-5-yl)thieno[3,2-d]pyrimidine-7-carboxamide], with 33.5 ± 6.13 nM; and `Cc1ccc2c(Cc3ccc(C(F)(F)F)cc3)nccc2c1NC(=O)c1csc2c(N)ncnc12` [Compound 34, 4-amino-N-(6-methyl-1-(4-(trifluoromethyl)benzyl)isoquinolin-5-yl)thieno[3,2-d]pyrimidine-7-carboxamide], with 26.9 ± 2.58 nM.
Compound `Cc1ccc2c(Cc3ccc(N(C)C)nc3)nccc2c1NC(=O)c1csc2c(N)ncnc12` [Compound 36, 4-amino-N-(1-((6-(dimethylamino)pyridin-3-yl)methyl)-6-methylisoquinolin-5-yl)thieno[3,2-d]pyrimidine-7-carboxamide] gave an IC50 of 22.5 ± 4.41 nM.
Then `Cc1ccc2c(C(O)c3ccc(N(C)C)nc3)nccc2c1NC(=O)c1csc2c(N)ncnc12` (stereo not drawn) [Compound 37, 4-amino-N-(1-((6-(dimethylamino)pyridin-3-yl)(hydroxy)methyl)-6-methylisoquinolin-5-yl)thieno[3,2-d]pyrimidine-7-carboxamide], with 20.4 ± 3.03 nM; and `Cc1ccc2c(Nc3ccc(CN(C)C)cc3)nccc2c1NC(=O)c1cccc2c(N)ncnc12` [Compound 40, 4-amino-N-(1-((4-((dimethylamino)methyl)phenyl)amino)-6-methylisoquinolin-5-yl)quinazoline-8-carboxamide], with 8.51 ± 1.02 nM.
Then `Cc1ccc2c(Cc3ccc(Cl)c(CN(C)C)c3)nccc2c1NC(=O)c1csc2c(N)ncnc12` [Compound 42, 4-amino-N-(1-(4-chloro-3-((dimethylamino)methyl)benzyl)-6-methylisoquinolin-5-yl)thieno[3,2-d]pyrimidine-7-carboxamide], with 35.8 ± 9.02 nM; and `Cc1ccc2c(Nc3ccccc3F)nccc2c1NC(=O)c1cnc2c(N)ncnn12` [Compound 44, 4-amino-N-(1-((2-fluorophenyl)amino)-6-methylisoquinolin-5-yl)imidazo[2,1-f][1,2,4]triazine-7-carboxamide], with 0.88 ± 0.15 nM; and `Cc1cc(C(=O)Nc2c(C)ccc3c(Nc4cccc(Cl)c4F)nccc23)c2ncnc(N)c2c1` [Compound 45, 4-amino-N-(1-((3-chloro-2-fluorophenyl)amino)-6-methylisoquinolin-5-yl)-6-methylquinazoline-8-carboxamide], with 18.2 ± 7.52 nM.
Then `Cc1ccc2c(Nc3cccc(Cl)c3F)nccc2c1NC(=O)c1cc(N2CCOCC2)cc2c(N)ncnc12` [Compound 53, 4-amino-N-(1-((3-chloro-2-fluorophenyl)amino)-6-methylisoquinolin-5-yl)-6-morpholinoquinazoline-8-carboxamide], with 17.3 ± 3.43 nM.
Compound `Cc1ccc2c(Nc3cccc(Cl)c3F)nccc2c1NC(=O)c1cc(N2CCN(C)CC2)cc2c(N)ncnc12` [Compound 54, 4-amino-N-(1-((3-chloro-2-fluorophenyl)amino)-6-methylisoquinolin-5-yl)-6-(4-methylpiperazin-1-yl)quinazoline-8-carboxamide] had a half-maximal inhibitory concentration (IC50) of 11 ± 2.02 nM.
In the case of `Cc1ccc2c(Nc3ccc(Cl)cc3F)nccc2c1NC(=O)c1cnc2c(N)ncnn12` [Compound 55, 4-amino-N-(1-((4-chloro-2-fluorophenyl)amino)-6-methylisoquinolin-5-yl)imidazo[2,1-f][1,2,4]triazine-7-carboxamide] it was 2.86 ± 0.24 nM.
